The results in this text go back to US6291530A, “Aryl-substituted acrylamides with Leukotriene B4 (LTB-4) receptor antagonist activity” (Novartis AG, priority 1999, dated 2001).

Assay [1] relates to arachidonic acid-induced mouse ear inflammation. The assay can be described thus: Arachidonic acid-induced mouse ear inflammation model. It counts as in vivo. The method, then: The methodology used is essentially that described by Young et al., J. Invest. Dermatol. 82, 367-371 (1984). Female mice (A/J, Jakson Labs., Bar Harbor, Me.) weighing 20 gm are divided into groups consisting of six mice per treatment group. They are fasted overnight. Arachidonic acid (2 mg in 15 μl acetone) (Sigma, St Louis, Mo.) is applied to the inner surface of the right ear. The left ear received 15 μl of acetone. […] […] Edema is determined by subtracting the weight of the left ear punch from that of the right ear. As the marker for neutrophil infiltration, myeloperoxidase activity is measured as described by Bradley et al., J. Invest. Dermatol., Vol. 78, p. 206 (1982). The right ear punches from the both the vehicle and compound treated groups are used. The percentage of inhibition is calculated by comparing the myeloperoxidase activity of the compound treated groups with those of the vehicle treated group.

The test system of assay [2] is LTB-4-induced intracellular calcium rise in human neutrophils. The assay can be described thus: Inhibition of the LTB-4-induced intracellular calcium rise in human neutrophils. It counts as cell-based. Conditions: Neutrophil, read-out: Concentration at which calcium rise is inhibited. The method, then:
(§1) LTB-4 is purchased as a solution in either ethanol or DMSO (Biomol, Plymouth Meeting, Pa.) and diluted into Hank's balanced Salt Solution (HBSS) before use. For in vitro tests, test compounds are dissolved in DMSO to produce stock solution of 10 mM. Dilutions are made so that the final concentration of DMSO is 0.35%.
Inhibition of LTB-4 is determined by measuring the inhibition of the LTB-4-induced intracellular calcium rise in human neutrophils. Increases in intracellular Ca++ are measured as described by Seligmann et al., Agents and Actions, Vol. 21, p. 375 (1987). Neutrophils are purified from citrated human venous blood by sedimentation in HESPAN as described above. Neutrophils are isolated from the resulting pellet by centrifugal elutriation (Berkow et al., J. Lab. Clin. Med., Vol. 104, p. 698, 1984). Except were noted the neutrophils are incubated with acetoxymetbyl ester of Fura-2 (0.2 μM)(Molecular Probes Inc.) for 30 minutes at 37° C. in HEPES-buffered Hank's solution containing Ca++ and Mg++. The Fura-2 loaded cells are washed and stored on ice at a concentration of 2×10^6 cells/ml in 10 mM HEPES-buffered HBSS without Ca++ and Mg++. Fifteen minutes before assay, 1.5 ml of the cell suspension is mixed with 10 μl of 0.15 M Ca++ and 0.15 M Mg++ by stirring at 37° C. Compounds are added 40 seconds before the addition of 1 nM LTB-4. The change in fluorescence was followed using a DMX 1000 spectrofluorometer (SLM-Aminco Instruments, Urbana Ill.).
(In general: Calcium assays in cells follow changes in intracellular calcium, usually with a dye or a luminescent sensor.)

Another assay deals with T1, LTB-4 receptor (Homo sapiens, UniProt Q15722).
T1 construct: to intact human neutrophils; endogenous in cells; host or cells: intact neutrophils prepared from human venous blood
T1 sequence (Q15722 whole entry): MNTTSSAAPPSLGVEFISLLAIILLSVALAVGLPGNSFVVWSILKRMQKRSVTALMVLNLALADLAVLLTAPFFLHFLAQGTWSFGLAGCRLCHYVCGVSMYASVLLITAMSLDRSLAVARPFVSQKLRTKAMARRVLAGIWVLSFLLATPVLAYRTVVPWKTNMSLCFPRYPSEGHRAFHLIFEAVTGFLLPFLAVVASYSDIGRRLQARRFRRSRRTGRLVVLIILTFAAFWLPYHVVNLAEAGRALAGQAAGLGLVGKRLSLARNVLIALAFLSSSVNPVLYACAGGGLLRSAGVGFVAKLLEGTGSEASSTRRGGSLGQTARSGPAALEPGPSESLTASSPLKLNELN
In words: LTB-4 receptor binding assay: binding of [H^3]-LTB-4 to intact human neutrophils. Conditions: [H^3]-LTB-4, intact human neutrophils. The method, then: LTB-4 receptor binding is dete mined in the following assay involving receptor binding of [H^3 ]-LTB-4 to intact human neutrophils.
as §1
Neutrophils are prepared from […] human venous blood. Blood (25 ml) is mixed with HESPAN (15 ml)(DuPont, Wilmington, Del.) and allowed to stand at room temperature for 40 minutes. The supernatant is removed and centrifuged for 10 minutes at 400×g. The resulting pellet is resuspended in phosphate-buffered saline without calcium and magnesium (GIBCO, Grand Islands N.Y.). Thirty-five ml of the resuspended cells is layered over 15 ml of Ficoll-Paque (Sigma, St Louis, Mo.) and then centrifuged for 15 minutes at 420×g. The resulting cell pllet is resuspended in 10 ml of phosphate-buffered saline without calcium and magnesium. Twenty-five ml of deionized water are added to the suspension for 20 seconds followed by the same volume of buffer at twice the normal concentration. The suspension is centrifuged for 5 minutes at 200×g,and the pellet resuspended in Hank's Balanced Salt Solution (HBSS).
Binding of [H^3 ]-LTB-4 to neutrophils is measured as described by Gorman and Lin, Methods Enzymol. 141: 372-378 (1987) and Jackson et al., J. Pharmacol.Exp. Ther., Vol. 262, p. 80 (1992). Intact human ntutrophils (3×106) are added to HBSS containing 0.5 nM [H^3 ]-LTB-4 (specific activity 32 Ci/mmol, DuPont-NEN, Boston, Mass.) and compound (final volume 0.5 ml). After incubating for 20 minutes at 0° C., the bound radioactivity is collected on Whatman GF/C filters by vacuum filtration using a Brandel harvester. The filters are washed twice with ice cold HBSS. Filters are counted using Formula-989 scintillation cocktail (DuPont-NEN, Boston, Mass.). Non-specific binding is determined in the presence of 300 nM LTB-4 (Biomol Res. Labs, Plymouth Meeting, Pa.).

[3] abbreviates: 3 mg/Kg p.o., 1.5 hours post administration.
The mark [4] stands for this setting: 10 mg/Kg p.o., 18 hours post administration.

With `CCN(CC)C(=O)/C=C(\C)c1ccc(OCc2c(F)cccc2F)c(OCC(=O)O)c1` [Example 2y, (E)-[5-(2-Diethylcarbamoyl-1-methylvinyl)-2-(2,6-difluorobenzyloxy)-phenoxy]-acetic acid], the Inhibition of edema result in assay [1] (setting [3]) and in assay [1] (setting [4]) was “inhibit” throughout. The “Inhibition of myeloperoxidase activity” value in assay [1] (setting [3]) and in assay [1] (setting [4]) was “inhibit” throughout. Further, the figures for the IC50 (in assay [2]; on LTB-4 receptor) were approximately 18 nM and approximately 48 nM, respectively.
With `CCN(CC)C(=O)/C=C(\C)c1ccc(OCc2c(F)cccc2F)c(CC(=O)O)c1` [Example 8a, (E)-[5-(2-diethylcarbamoyl-1-methyl-vinyl)-2-(2,6-difluorobenzyloxy)-phenyl]-acetic acid], the Inhibition of edema entry in assay [1] (setting [3]) and in assay [1] (setting [4]) was “inhibit” in each case. The “Inhibition of myeloperoxidase activity” value in assay [1] (setting [3]) and in assay [1] (setting [4]) was “inhibit” throughout. Also, the IC50 was approximately 22 nM in assay [2] and approximately 87 nM on LTB-4 receptor.
For `CCN(CC)C(=O)/C=C(\C)c1ccc(OC(C)c2ccccc2)c(CC(=O)O)c1` (stereo not drawn) [Example 8b, (E)-[5(2-diethylcarbamoyl-1-methylvinyl)-2-(1-phenyl-ethoxy)-phenyl]-acetic acid], the Inhibition of edema entry in assay [1] (setting [3]) and in assay [1] (setting [4]) was “inhibit” each time. Moreover, the “Inhibition of myeloperoxidase activity” value in assay [1] (setting [3]) and in assay [1] (setting [4]) was “inhibit” throughout. The IC50 in assay [2] is approximately 8 nM; at LTB-4 receptor it was approximately 74 nM.
